Measurements: ChEMBL document CHEMBL1150142, “New onoceranoid triterpene constituents from Lansium domesticum” (J Nat Prod, 2002)
Active and inactive are the calls of the source. The rule behind the calls is not given here.

Assay: Inhibition of trypsin

Activity	Compound
inactive	C=C(C)[C@@H]1CCC(=C)[C@H](CC[C@H]2C(C)=CC[C@@H](C(=C)C)[C@]2(C)CCC(=O)O)[C@@]1(C)CCC(=O)O
inactive	C=C(C)[C@@H]1CC=C(C)[C@H](CC[C@H]2C(=C)CC[C@H]3C(C)(C)C(=O)CC[C@]23C)[C@@]1(C)CCC(=O)O

Further lines, the molecule ahead of its results:

Compound	Activity
C=C(C)[C@@H]1CC=C(C)[C@H](CC[C@H]2C(=C)CC[C@H]3C(C)(C)C(=O)CC[C@]23C)[C@@]1(C)CCC(=O)OC	inactive
C=C1CC[C@H]2C(C)(C)[C@@H](O)CC[C@]2(C)[C@H]1CC[C@H]1C(C)=CC[C@H]2C(C)(C)C(=O)CC[C@]12C	inactive
C=C1CC[C@H]2C(C)(C)C(=O)CC[C@]2(C)[C@H]1CC[C@H]1C(C)=CC[C@H]2C(C)(C)[C@@H](O)CC[C@]12C	inactive
